Reference: paper PMC10938303 (Bioorganic & medicinal chemistry letters, 2022)

How the values were obtained:
hM5 = target: T1, hM5 (Homo sapiens, UniProt P08912); test: Calcium mobilization assay with hM5-CHO cells, EC80 acetylcholine; format: cell-based; conditions: for hM5 IC50: hM5-CHO cells, EC80 acetylcholine, one experiment in triplicate
T1 sequence (P08912 1-532): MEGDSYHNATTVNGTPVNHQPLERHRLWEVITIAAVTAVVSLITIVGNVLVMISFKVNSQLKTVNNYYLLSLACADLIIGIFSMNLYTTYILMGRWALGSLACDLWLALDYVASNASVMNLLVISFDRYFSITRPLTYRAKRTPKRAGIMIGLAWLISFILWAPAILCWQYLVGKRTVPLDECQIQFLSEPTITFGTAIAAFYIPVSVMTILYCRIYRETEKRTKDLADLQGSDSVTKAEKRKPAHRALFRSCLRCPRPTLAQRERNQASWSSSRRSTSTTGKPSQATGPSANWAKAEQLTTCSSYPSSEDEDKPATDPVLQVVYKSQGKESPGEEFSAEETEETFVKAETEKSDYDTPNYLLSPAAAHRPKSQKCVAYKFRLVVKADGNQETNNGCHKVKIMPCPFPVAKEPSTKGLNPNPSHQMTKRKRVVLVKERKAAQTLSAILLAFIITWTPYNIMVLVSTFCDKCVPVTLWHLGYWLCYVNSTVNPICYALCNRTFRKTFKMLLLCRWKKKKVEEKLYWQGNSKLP

[1] = In vitro clearance, human; format: in vitro ADME
In vitro clearance, rat = format: in vitro ADME

O=C(Nc1ccc2scnc2c1)[C@@H]1CCN(S(=O)(=O)c2ccc3c(c2)CCO3)C1 [12d]
fold more potent than (S)-12a (12c) (hM5 IC50) (hM5; versus 12c): 21 fold | Predicted CLhep (h) [1]: 15 mL/min/kg | Predicted CLhep (r) (In vitro clearance, rat): 59 mL/min/kg

O=C(Nc1ccc2scnc2c1)[C@H]1CCN(S(=O)(=O)c2ccc3c(c2)CCO3)C1 [12c]
Predicted CLhep (h) [1]: 16 mL/min/kg | Predicted CLhep (r) (In vitro clearance, rat): 52 mL/min/kg

O=C(Nc1ccc2scnc2c1)[C@@H]1CCN(S(=O)(=O)c2ccc3ncsc3c2)C1 [17j]
Predicted CLhep (h) [1]: 13 mL/min/kg | Predicted CLhep (r) (In vitro clearance, rat): 29 mL/min/kg

O=C(Nc1ccc2scnc2c1)[C@@H]1CCN(S(=O)(=O)c2ccc3c(c2)OCO3)C1 [17g]
Predicted CLhep (h) [1]: 12 mL/min/kg | Predicted CLhep (r) (In vitro clearance, rat): 55 mL/min/kg

O=C(Nc1ccc2scnc2c1)[C@@H]1CCN(S(=O)(=O)c2ccc(Cl)nc2)C1 [17d]
hM5 IC50 (hM5): inactive

C[C@@H]1CN(S(=O)(=O)c2ccc3c(c2)CCO3)C[C@@H]1C(=O)Nc1ccc2scnc2c1 [12e]
Predicted CLhep (h) [1]: 19 mL/min/kg | Predicted CLhep (r) (In vitro clearance, rat): 64 mL/min/kg

[2H]C1([2H])Oc2ccc(S(=O)(=O)N3CC[C@@H](C(=O)Nc4ccc5scnc5c4)C3)cc2C1([2H])[2H] [17f]
Predicted CLhep (h) [1]: 15 mL/min/kg | Predicted CLhep (r) (In vitro clearance, rat): 49 mL/min/kg

C[C@H]1CN(S(=O)(=O)c2ccc3c(c2)CCO3)C[C@@H]1C(=O)Nc1ccc2scnc2c1 [12f]
Predicted CLhep (h) [1]: 4 mL/min/kg | Predicted CLhep (r) (In vitro clearance, rat): 29 mL/min/kg

O=C(Nc1ccc2scnc2c1)C1CN(S(=O)(=O)c2ccc3c(c2)CCO3)C1 [12b]
Predicted CLhep (h) [1]: 16 mL/min/kg | Predicted CLhep (r) (In vitro clearance, rat): 57 mL/min/kg

O=C(Nc1ccc2scnc2c1)C12CC1CN(S(=O)(=O)c1ccc3c(c1)CCO3)C2 (centres unmarked) [12h]
Predicted CLhep (h) [1]: 18 mL/min/kg | Predicted CLhep (r) (In vitro clearance, rat): 60 mL/min/kg

O=C(Nc1ccc2scnc2c1)[C@@H]1CCN(S(=O)(=O)c2ccc3ncccc3c2)C1 [17i]
Predicted CLhep (h) [1]: 14 mL/min/kg | Predicted CLhep (r) (In vitro clearance, rat): 51 mL/min/kg

O=C(Nc1ccc2scnc2c1)[C@H]1CN(S(=O)(=O)c2ccc3c(c2)CCO3)C[C@@H]1C(F)(F)F [12g]
hM5 IC50 (hM5): inactive

O=C(Nc1ccc2scnc2c1)[C@@H]1CCN(S(=O)(=O)c2ccc3c(c2)CCC3)C1 [17h]
hM5 IC50 (hM5): significantly less active

Cc1nn(C)cc1S(=O)(=O)N1CC[C@@H](C(=O)Nc2ccc3scnc3c2)C1 [17a]
hM5 IC50 (hM5): inactive

O=C(Nc1ccc2scnc2c1)C1CCN(S(=O)(=O)c2ccc3c(c2)CCO3)C1 (centres unmarked) [12a]
Predicted CLhep (h) [1]: 16 mL/min/kg | Predicted CLhep (r) (In vitro clearance, rat): 55 mL/min/kg

O=C(Nc1ccc2scnc2c1)[C@@H]1CCN(S(=O)(=O)c2cccnc2)C1 [17c]
hM5 IC50 (hM5): inactive

Cn1cc(S(=O)(=O)N2CC[C@@H](C(=O)Nc3ccc4scnc4c3)C2)c(C(F)(F)F)n1 [17b]
hM5 IC50 (hM5): inactive
